Assay results reported in publication PMC12155096 (International Journal of Molecular Sciences, 2025).
Structures can show the parent of a compound that is named as a salt. Where two headings read alike, the source gives them in different places.

Legend:
human CYP1A2 [1] = target: T1, human CYP1A2 (Homo sapiens, UniProt P05177); assay: biochemical; settings: for IC50: CYP1A2 IC50 (half-maximal inhibitory concentration)
T1 sequence (P05177 1-516): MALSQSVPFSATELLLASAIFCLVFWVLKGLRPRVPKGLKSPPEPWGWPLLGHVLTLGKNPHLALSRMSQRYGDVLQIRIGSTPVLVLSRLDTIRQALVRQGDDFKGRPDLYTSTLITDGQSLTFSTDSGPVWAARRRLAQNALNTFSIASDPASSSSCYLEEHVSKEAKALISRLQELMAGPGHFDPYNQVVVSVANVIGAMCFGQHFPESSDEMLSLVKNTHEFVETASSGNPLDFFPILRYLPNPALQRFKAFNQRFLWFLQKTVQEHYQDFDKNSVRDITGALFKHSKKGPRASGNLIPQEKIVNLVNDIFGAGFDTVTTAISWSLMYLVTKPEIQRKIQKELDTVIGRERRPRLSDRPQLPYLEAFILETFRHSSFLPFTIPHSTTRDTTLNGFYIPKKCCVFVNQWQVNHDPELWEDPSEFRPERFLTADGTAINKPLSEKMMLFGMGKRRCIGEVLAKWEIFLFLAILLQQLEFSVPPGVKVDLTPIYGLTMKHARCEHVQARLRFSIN

human CYP2C19 [2] = target: T2, human CYP2C19 (Homo sapiens, UniProt P33261); assay: biochemical; settings: for IC50: CYP2C19 IC50 (half-maximal inhibitory concentration); for AC50: CYP2C19 AC50 (half-maximal activity concentration)
T2 sequence (P33261 whole entry): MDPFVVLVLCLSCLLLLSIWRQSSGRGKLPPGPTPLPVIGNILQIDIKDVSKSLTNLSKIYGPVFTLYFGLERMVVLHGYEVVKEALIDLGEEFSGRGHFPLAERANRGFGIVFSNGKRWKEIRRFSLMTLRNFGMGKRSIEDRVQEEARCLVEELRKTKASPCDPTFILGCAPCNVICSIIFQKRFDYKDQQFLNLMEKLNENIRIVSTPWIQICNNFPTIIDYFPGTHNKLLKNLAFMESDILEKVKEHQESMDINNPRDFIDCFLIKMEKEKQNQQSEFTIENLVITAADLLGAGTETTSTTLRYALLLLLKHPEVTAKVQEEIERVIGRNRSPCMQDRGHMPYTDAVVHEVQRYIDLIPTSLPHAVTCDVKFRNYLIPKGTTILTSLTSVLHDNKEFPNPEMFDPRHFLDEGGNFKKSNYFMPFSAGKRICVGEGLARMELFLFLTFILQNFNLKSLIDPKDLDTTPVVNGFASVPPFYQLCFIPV

CYP3A4 [3] = target: T3, CYP3A4 (Homo sapiens, UniProt P08684)
T3 sequence (P08684 whole entry): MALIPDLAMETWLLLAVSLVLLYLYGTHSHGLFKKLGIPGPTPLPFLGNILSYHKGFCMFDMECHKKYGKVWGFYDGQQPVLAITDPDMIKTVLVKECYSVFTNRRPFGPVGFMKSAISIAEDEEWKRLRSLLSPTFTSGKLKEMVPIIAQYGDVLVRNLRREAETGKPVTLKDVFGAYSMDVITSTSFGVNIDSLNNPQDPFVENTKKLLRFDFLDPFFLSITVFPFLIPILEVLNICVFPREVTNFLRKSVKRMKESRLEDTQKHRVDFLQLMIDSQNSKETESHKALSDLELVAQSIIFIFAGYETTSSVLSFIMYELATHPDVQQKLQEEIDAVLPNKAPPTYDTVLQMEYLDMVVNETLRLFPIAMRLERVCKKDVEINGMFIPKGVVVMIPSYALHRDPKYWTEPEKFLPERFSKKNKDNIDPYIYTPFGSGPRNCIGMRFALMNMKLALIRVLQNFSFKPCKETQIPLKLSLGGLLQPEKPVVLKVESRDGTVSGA

human CYP1A2 [4] = target: T1, human CYP1A2; settings: for CYP1A2 Efficacy (in parenthesis): human
CYP3A4 [5] = target: T3, CYP3A4; assay: biochemical; settings: for IC50: CYP3A4 IC50 (half-maximal inhibitory concentration)
human CYP2D6 [6] = target: T4, human CYP2D6 (Homo sapiens, UniProt P10635); settings: for CYP2D6 Efficacy (in parenthesis): human
T4 sequence (P10635 whole entry): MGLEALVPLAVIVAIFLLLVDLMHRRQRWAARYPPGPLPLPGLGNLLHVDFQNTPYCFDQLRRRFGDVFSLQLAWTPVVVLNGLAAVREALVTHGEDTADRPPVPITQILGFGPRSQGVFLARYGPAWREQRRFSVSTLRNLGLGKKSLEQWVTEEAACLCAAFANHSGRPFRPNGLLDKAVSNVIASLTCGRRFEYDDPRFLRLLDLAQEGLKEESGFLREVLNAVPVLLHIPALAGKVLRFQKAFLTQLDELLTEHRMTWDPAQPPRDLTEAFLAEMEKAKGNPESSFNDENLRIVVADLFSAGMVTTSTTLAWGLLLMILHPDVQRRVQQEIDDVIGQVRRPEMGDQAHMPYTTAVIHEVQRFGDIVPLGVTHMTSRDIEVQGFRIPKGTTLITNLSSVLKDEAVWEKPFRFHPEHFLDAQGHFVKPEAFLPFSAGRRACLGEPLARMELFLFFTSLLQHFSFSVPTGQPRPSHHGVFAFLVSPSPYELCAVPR

human CYP2C19 [7] = target: T2, human CYP2C19; settings: for CYP2C19 Efficacy (in parenthesis): human
human CYP2C9 [8] = target: T5, human CYP2C9 (Homo sapiens, UniProt P11712); assay: biochemical; settings: for AC50: CYP2C9 AC50 (half-maximal activity concentration)
T5 sequence (P11712 whole entry): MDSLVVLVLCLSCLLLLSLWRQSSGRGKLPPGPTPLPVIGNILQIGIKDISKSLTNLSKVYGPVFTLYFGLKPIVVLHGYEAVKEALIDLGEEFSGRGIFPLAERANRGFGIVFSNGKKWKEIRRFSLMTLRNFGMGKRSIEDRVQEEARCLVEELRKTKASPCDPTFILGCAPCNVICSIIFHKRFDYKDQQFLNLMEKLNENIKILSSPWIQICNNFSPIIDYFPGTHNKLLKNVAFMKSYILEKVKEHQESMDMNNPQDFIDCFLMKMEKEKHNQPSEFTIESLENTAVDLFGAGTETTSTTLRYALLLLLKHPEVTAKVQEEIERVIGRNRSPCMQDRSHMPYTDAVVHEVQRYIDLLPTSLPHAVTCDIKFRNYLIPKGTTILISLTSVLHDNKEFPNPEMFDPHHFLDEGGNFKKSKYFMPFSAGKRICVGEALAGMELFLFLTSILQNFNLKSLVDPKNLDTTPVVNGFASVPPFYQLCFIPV

human CYP2C9 [9] = target: T5, human CYP2C9
[10] = target: Photinus pyralis (firefly) luciferase (Photinus pyralis, UniProt P08659); assay: biochemical; assay type: biochemical
Chain of Photinus pyralis (firefly) luciferase (P08659 whole entry): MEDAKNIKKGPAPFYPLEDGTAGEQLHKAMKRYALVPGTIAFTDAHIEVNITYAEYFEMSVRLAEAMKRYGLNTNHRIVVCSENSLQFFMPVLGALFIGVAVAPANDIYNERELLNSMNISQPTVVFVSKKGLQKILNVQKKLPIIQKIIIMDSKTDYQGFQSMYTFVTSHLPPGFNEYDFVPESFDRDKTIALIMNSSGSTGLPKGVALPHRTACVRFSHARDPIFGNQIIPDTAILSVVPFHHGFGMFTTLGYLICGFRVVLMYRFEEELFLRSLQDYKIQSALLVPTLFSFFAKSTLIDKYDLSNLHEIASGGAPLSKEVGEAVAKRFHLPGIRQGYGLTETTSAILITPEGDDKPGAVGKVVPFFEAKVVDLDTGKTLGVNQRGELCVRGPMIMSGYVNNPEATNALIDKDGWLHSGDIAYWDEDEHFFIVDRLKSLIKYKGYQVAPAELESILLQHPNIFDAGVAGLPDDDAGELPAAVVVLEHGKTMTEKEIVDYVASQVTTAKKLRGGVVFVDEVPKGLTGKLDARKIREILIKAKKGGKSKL

human CYP2D6 [11] = target: T4, human CYP2D6; assay: biochemical
[12] = CYP2C9 IC50 (half-maximal inhibitory concentration)
[13] = CYP2D6 IC50 (half-maximal inhibitory concentration)

## CCC1COC(Cn2cncn2)(c2ccc(Cl)cc2Cl)O1 (centres unmarked) [Etaconazole]
Human CYP1A2 [1]
  IC50: 31.9 µM
Human CYP2C19 [2]
  IC50: 0.32 µM
CYP3A4 [3]
  CYP3A4 Efficacy (in parenthesis): 0.1 ± 0.01 (-79 ± 1) %
Human CYP1A2 [4]
  CYP1A2 Efficacy (in parenthesis): 31.85 ± 3.66 (-69 ± 5) %
CYP3A4 [5]
  IC50: 0.1 µM
Human CYP2D6 [6]
  CYP2D6 Efficacy (in parenthesis): 45.4 ± 9.51 (-42 ± 2) %
Human CYP2C19 [7]
  CYP2C19 Efficacy (in parenthesis): 0.32 ± 0.04 (-137 ± 10) %
Human CYP2C9 [8]; [12]
  IC50: 5.71 µM
Human CYP2C9 [9]; human
  CYP2C9 Efficacy (in parenthesis): 5.71 ± 1.07 (-109 ± 6) %
[10]
  Luciferase IC50 (half-maximal inhibitory concentration): Inactive
Human CYP2D6 [11]; [13]
  IC50: 45.4 µM

## COP(=S)(OC)Oc1ccc(S(=O)(=O)N(C)C)cc1 [Famphur]
Human CYP1A2 [1]
  IC50: 35.7 µM
Human CYP2C19 [2]
  IC50: 0.09 µM
CYP3A4 [3]
  CYP3A4 Efficacy (in parenthesis): 9.06 ± 1.9 (-86 ± 7) %
Human CYP1A2 [4]
  CYP1A2 Efficacy (in parenthesis): 35.73 ± 4.11 (-67 ± 14) %
CYP3A4 [5]
  IC50: 9.06 µM
Human CYP2D6 [6]
  CYP2D6 Efficacy (in parenthesis): 35.57 ± 0 (-59 ± 2) %
Human CYP2C19 [7]
  CYP2C19 Efficacy (in parenthesis): 0.09 ± 0.01 (-137 ± 1) %
Human CYP2C9 [8]
  IC50: 0.4 µM
Human CYP2C9 [9]; human
  CYP2C9 Efficacy (in parenthesis): 0.4 ± 0.05 (-109 ± 5) %
[10]
  Luciferase IC50 (half-maximal inhibitory concentration): Inactive
Human CYP2D6 [11]
  IC50: 35.6 µM

## O=C1C(Cl)C(CCl)CN1c1cccc(C(F)(F)F)c1 (centres unmarked) [Flurochloridone]
Human CYP1A2 [1]; CYP1A2 AC50 (half-maximal activity concentration)
  AC50: 1.04 µM
Human CYP1A2 [1]
  IC50: 1.04 µM
Human CYP2C19 [2]
  AC50: 12.3 µM
  IC50: 12.3 µM
CYP3A4 [3]
  CYP3A4 Efficacy (in parenthesis): 6.98 ± 2.77 (42 ± 7) %
CYP3A4 [5]
  IC50: 6.98 µM
Human CYP2C9 [8]
  AC50: 7.82 µM
Human CYP2C9 [9]; human
  CYP2C9 IC50 (half-maximal inhibitory concentration): 7.82 ± 1.95 (82 ± 14) µM
[10]
  Luciferase IC50 (half-maximal inhibitory concentration): Inactive
Human CYP2D6 [11]; CYP2D6 AC50 (half-maximal activity concentration)
  AC50: 35.9 µM
Human CYP2D6 [11]; [13]
  IC50: 35.9 µM

## CC(C)C1CCC(Cc2ccc(Cl)cc2)C1(O)Cn1cncn1 (centres unmarked) [Ipconazole]
Human CYP1A2 [1]
  IC50: 35.4 µM
Human CYP2C19 [2]
  IC50: 0.27 µM
CYP3A4 [3]
  CYP3A4 Efficacy (in parenthesis): 0.05 ± 0.01 (-89 ± 5) %
Human CYP1A2 [4]
  CYP1A2 Efficacy (in parenthesis): 35.41 ± 4.07 (-90 ± 1) %
CYP3A4 [5]
  IC50: 0.05 µM
Human CYP2D6 [6]
  CYP2D6 Efficacy (in parenthesis): 22.34 ± 2.57 (-107 ± 15) %
Human CYP2C19 [7]
  CYP2C19 Efficacy (in parenthesis): 0.27 ± 0.07 (-168 ± 31) %
Human CYP2C9 [8]; [12]
  IC50: 0.79 µM
Human CYP2C9 [9]; human
  CYP2C9 Efficacy (in parenthesis): 0.79 ± 0.09 (-94 ± 4) %
[10]
  Luciferase IC50 (half-maximal inhibitory concentration): Inactive
Human CYP2D6 [11]; [13]
  IC50: 22.3 µM

## COP(=S)(Oc1cc(Cl)c(Br)cc1Cl)c1ccccc1 (centres unmarked) [Leptophos]
Human CYP1A2 [1]
  IC50: 21.4 µM
Human CYP2C19 [2]
  IC50: 0.27 µM
CYP3A4 [3]
  CYP3A4 Efficacy (in parenthesis): 7.39 ± 0.5 (-65 ± 15) %
Human CYP1A2 [4]
  CYP1A2 Efficacy (in parenthesis): 21.38 ± 6.3 (-109 ± 13) %
CYP3A4 [5]
  IC50: 7.39 µM
Human CYP2D6 [6]
  CYP2D6 Efficacy (in parenthesis): 89.36 ± 0 (-42 ± 11) %
Human CYP2C19 [7]
  CYP2C19 Efficacy (in parenthesis): 0.27 ± 0.05 (-122 ± 2) %
Human CYP2C9 [8]
  IC50: 0.98 µM
Human CYP2C9 [9]; human
  CYP2C9 Efficacy (in parenthesis): 0.98 ± 0.25 (-107 ± 5) %
[10]
  Luciferase IC50 (half-maximal inhibitory concentration): Inactive
Human CYP2D6 [11]
  IC50: 89.4 µM

## CCCCN1CCCC[C@H]1C(=O)Nc1c(C)cccc1C [Levobupivacaine hydrochloride]
Human CYP1A2 [1]
  IC50: 17.4 µM
CYP3A4 [3]
  CYP3A4 Efficacy (in parenthesis): 9.59 ± 2.39 (-54 ± 7) %
Human CYP1A2 [4]
  CYP1A2 Efficacy (in parenthesis): 17.38 ± 0 (-62 ± 5) %
CYP3A4 [5]
  IC50: 9.59 µM
Human CYP2D6 [6]
  CYP2D6 Efficacy (in parenthesis): 0.57 ± 0.04 (-109 ± 3) %
Human CYP2C19 [7]
  CYP2C19 IC50 (half-maximal inhibitory concentration): Inactive
Human CYP2C9 [9]
  CYP2C9 IC50 (half-maximal inhibitory concentration): Inactive
[10]
  Luciferase IC50 (half-maximal inhibitory concentration): Inactive
Human CYP2D6 [11]; [13]
  IC50: 0.57 µM

## CCCCC(C#N)(Cn1cncn1)c1ccc(Cl)cc1 (centres unmarked) [Myclobutanil]
Human CYP1A2 [1]
  IC50: 33.3 µM
Human CYP2C19 [2]
  IC50: 0.66 µM
CYP3A4 [3]
  CYP3A4 Efficacy (in parenthesis): 0.17 ± 0.05 (-75 ± 2) %
Human CYP1A2 [4]
  CYP1A2 Efficacy (in parenthesis): 33.28 ± 11.5 (-34 ± 3) %
CYP3A4 [5]
  IC50: 0.17 µM
Human CYP2D6 [6]
  CYP2D6 Efficacy (in parenthesis): 49.32 ± 12.32 (-38 ± 7) %
Human CYP2C19 [7]
  CYP2C19 Efficacy (in parenthesis): 0.66 ± 0.12 (-168 ± 41) %
Human CYP2C9 [8]; [12]
  IC50: 25.2 µM
Human CYP2C9 [9]; human
  CYP2C9 Efficacy (in parenthesis): 25.18 ± 0 (-109 ± 4) %
[10]
  Luciferase IC50 (half-maximal inhibitory concentration): Inactive
Human CYP2D6 [11]; [13]
  IC50: 49.3 µM

## ClC(c1ccccc1)(c1ccccc1)c1ccccc1 [Trityl chloride]
Human CYP1A2 [1]
  IC50: 75.3 µM
Human CYP2C19 [2]
  AC50: 0.26 µM
  IC50: 0.26 µM
CYP3A4 [3]
  CYP3A4 IC50 (half-maximal inhibitory concentration): 6.9 ± 1.18 (56 ± 3) µM
Human CYP1A2 [4]
  CYP1A2 AC50 (half-maximal activity concentration): Inconclusive inhibitor
CYP3A4 [5]; CYP3A4 AC50 (half-maximal activity concentration)
  AC50: 6.9 µM
Human CYP2D6 [6]
  CYP2D6 AC50 (half-maximal activity concentration): Inconclusive inhibitor
Human CYP2C9 [8]
  AC50: 1.48 µM
Human CYP2C9 [8]; [12]
  IC50: 1.48 µM
[10]
  Luciferase IC50 (half-maximal inhibitory concentration): Inactive
Human CYP2D6 [11]; [13]
  IC50: 62.1 µM
